We go through 1 compound from patent US6458770B1, “Parenteral formulations comprising carbamazepine or its derivatives” (Novartis AG, priority 1997, dated 2002).

A short description of the data set: Solubility of the active agent in water. The data set is classed as physicochemical. The following applies: 25° C., pH of 5.8 to 6.0. How it is done:
A wide range of container sizes may be employed. Container size may be conveniently categorised as Low-Volume, i.e. 100 ml or less and High-Volume, i.e. above 100 ml and typically 250 ml. […] parenteral formulations could of course be employed but this may require the use of an organic co-solvent or other solubilising aid which is less desirable than a totally water-based formulation.

Each structure is given as a SMILES string.

`NC(=O)N1c2ccccc2CC(O)c2ccccc21` (stereo not shown) [COMPOUND A, 10-hydroxy-10,11-tetrahydrocarbamazepine]: the solubility in water was 3.2 to 4.2 mg/mL.
